Reference: ChEMBL document CHEMBL1201862, “PubChem BioAssay data set” (2004)
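Cultured in 96-well plates, cells were exposed to test compound for 48 hours across five concentrations. GI50 = concentration required for 50% inhibition of growth.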 Calls of active or inactive are those of the source. Cut-off read from the data, not from the text of the source: active = GI50 up to about 1.1 µM and inactive = higher.

Legend:
Test in all cases: NCI tumour cell line growth inhibition, 48 h
[1] = system: 786-0
[2] = system: A498
[3] = system: A549
[4] = system: ACHN
[5] = system: CAKI-1
[6] = system: CCRF-CEM
[7] = system: COLO 205
[8] = system: DLD-1
[9] = system: DMS-114
[10] = system: DMS-273
[11] = system: EKVX
[12] = system: HCT-116
[13] = system: HCT-15
[14] = system: HL-60
[15] = system: HOP-18
[16] = system: HOP-62
[17] = system: HOP-92
[18] = system: HT-29
[19] = system: IGROV-1
[20] = system: K562
[21] = system: KM-20L2
[22] = system: KM12
[23] = system: LOX IMVI
[24] = system: LXFL 529
[25] = system: M14
[26] = system: M19-MEL
[27] = system: MOLT-4
[28] = system: Malme-3M
[29] = system: NCI-H23
[30] = system: NCI-H460
[31] = system: NCI-H522
[32] = system: OVCAR-3
[33] = system: OVCAR-4
[34] = system: OVCAR-5
[35] = system: OVCAR-8
[36] = system: RPMI-8226
[37] = system: RXF 393
[38] = system: SF-268
[39] = system: SF-295
[40] = system: SF-539
[41] = system: SK-MEL-28
[42] = system: SK-MEL-2
[43] = system: SK-MEL-5
[44] = system: SK-OV-3
[45] = system: SN12C
[46] = system: SNB-19
[47] = system: SNB-75
[48] = system: SNB-78
[49] = system: SW-620
[50] = system: TK-10
[51] = system: U-251
[52] = system: UACC-257
[53] = system: UACC-62
[54] = system: UO-31
[55] = system: XF498

Cc1cc(NS(=O)(=O)c2ccc(NC(=O)c3ccc(Cl)c4c(Nc5ccc(S(=O)(=O)Nc6cc(C)on6)cc5)c5ccccc5nc34)cc2)no1
GI50 [1]: 16 µM (inactive)
GI50 [2]: 24.1 µM (inactive)
GI50 [3]: 25.6 µM (inactive)
GI50 [4]: 19 µM (inactive)
GI50 [5]: 15.9 µM (inactive)
GI50 [6]: 18.8 µM (inactive)
GI50 [7]: 22.4 µM (inactive)
GI50 [8]: > 10 µM (inactive)
GI50 [9]: 18.5 µM (inactive)
GI50 [10]: 22.5 µM (inactive)
GI50 [11]: 39 µM (inactive)
GI50 [12]: 14.2 µM (inactive)
GI50 [13]: 18.7 µM
GI50 [14]: 21.3 µM (inactive)
GI50 [15]: 15.8 µM (inactive)
GI50 [16]: 23.3 µM (inactive)
GI50 [17]: 19.8 µM (inactive)
GI50 [18]: 19.8 µM (inactive)
GI50 [19]: 21.5 µM (inactive)
GI50 [20]: 23.2 µM (inactive)
GI50 [21]: 21.5 µM (inactive)
GI50 [22]: 19.7 µM (inactive)
GI50 [23]: 18.5 µM (inactive)
GI50 [24]: 21.6 µM (inactive)
GI50 [25]: 22.2 µM (inactive)
GI50 [26]: 22.9 µM (inactive)
GI50 [27]: 29 µM (inactive)
GI50 [28]: 16.2 µM (inactive)
GI50 [29]: > 10 µM (inactive)
GI50 [30]: 21 µM (inactive)
GI50 [31]: 11.8 µM (inactive)
GI50 [32]: 16.6 µM (inactive)
GI50 [33]: 34.6 µM (inactive)
GI50 [34]: 21 µM (inactive)
GI50 [35]: 46 µM (inactive)
GI50 [36]: 27.5 µM (inactive)
GI50 [37]: > 10 µM (inactive)
GI50 [38]: 13.8 µM (inactive)
GI50 [39]: 23.8 µM (inactive)
GI50 [40]: 14.9 µM (inactive)
GI50 [41]: > 10 µM (inactive)
GI50 [42]: 20.9 µM (inactive)
GI50 [43]: 23 µM (inactive)
GI50 [44]: 19.2 µM (inactive)
GI50 [45]: 18.6 µM (inactive)
GI50 [46]: 14.4 µM (inactive)
GI50 [47]: 6.46 µM (inactive)
GI50 [48]: 36.1 µM (inactive)
GI50 [49]: 28.1 µM (inactive)
GI50 [50]: 31.3 µM (inactive)
GI50 [51]: 16.2 µM (inactive)
GI50 [52]: 20.2 µM (inactive)
GI50 [53]: 14.4 µM (inactive)
GI50 [54]: 15.9 µM (inactive)
GI50 [55]: 31.8 µM (inactive)
